Experimental data taken from the supplement of paper PMC12463676, “Small-molecule dissolution of stress granules by redox modulation benefits ALS models” (Nature Chemical Biology, 2025).

Legend:
lipoamide = compound: NC(=O)CCCCC1CCSS1 [lipoamide]; assay: thermal stability z-score vs DMSO; higher = more thermally stabilized by treatment; conditions: HeLa, lipoamide concentration 100 µM
Protocol: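 Cellular thermal proteome profiling in HeLa cells. Cells were treated with 100 µM lipoamide for 1 h, with or without 1 mM arsenate for a further 1 h, then heated to ten temperatures (37-66.3 °C), and soluble protein was quantified by TMT mass spectrometry relative to 0.1% DMSO controls. The thermal stability score (sum of log2 fold changes minus the abundance score) was transformed to a z-score; mean of n = 3 experiments.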

potassium arsenate = compound: O=[As]([O-])(O)O.[K+] [potassium arsenate]; assay: as above; conditions: HeLa; arsenate concentration 1 mM
Protocol: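 Cellular thermal proteome profiling in HeLa cells treated with 1 mM arsenate for 1 h (DMSO pretreatment), heated to ten temperatures (37-66.3 °C). Soluble protein was quantified by TMT mass spectrometry relative to DMSO controls; the thermal stability score was transformed to a z-score; mean of n = 3 experiments.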

[1] = arsenate co-treatment: 1 mM arsenate 1 h
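Further: each temperature applied for 3 min, abundance score taken as mean log2 fold change at the two lowest temperatures, z-score obtained by mean subtraction and division by SD.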

UniProt Q9Y2U8, sequence (Q9Y2U8 whole entry): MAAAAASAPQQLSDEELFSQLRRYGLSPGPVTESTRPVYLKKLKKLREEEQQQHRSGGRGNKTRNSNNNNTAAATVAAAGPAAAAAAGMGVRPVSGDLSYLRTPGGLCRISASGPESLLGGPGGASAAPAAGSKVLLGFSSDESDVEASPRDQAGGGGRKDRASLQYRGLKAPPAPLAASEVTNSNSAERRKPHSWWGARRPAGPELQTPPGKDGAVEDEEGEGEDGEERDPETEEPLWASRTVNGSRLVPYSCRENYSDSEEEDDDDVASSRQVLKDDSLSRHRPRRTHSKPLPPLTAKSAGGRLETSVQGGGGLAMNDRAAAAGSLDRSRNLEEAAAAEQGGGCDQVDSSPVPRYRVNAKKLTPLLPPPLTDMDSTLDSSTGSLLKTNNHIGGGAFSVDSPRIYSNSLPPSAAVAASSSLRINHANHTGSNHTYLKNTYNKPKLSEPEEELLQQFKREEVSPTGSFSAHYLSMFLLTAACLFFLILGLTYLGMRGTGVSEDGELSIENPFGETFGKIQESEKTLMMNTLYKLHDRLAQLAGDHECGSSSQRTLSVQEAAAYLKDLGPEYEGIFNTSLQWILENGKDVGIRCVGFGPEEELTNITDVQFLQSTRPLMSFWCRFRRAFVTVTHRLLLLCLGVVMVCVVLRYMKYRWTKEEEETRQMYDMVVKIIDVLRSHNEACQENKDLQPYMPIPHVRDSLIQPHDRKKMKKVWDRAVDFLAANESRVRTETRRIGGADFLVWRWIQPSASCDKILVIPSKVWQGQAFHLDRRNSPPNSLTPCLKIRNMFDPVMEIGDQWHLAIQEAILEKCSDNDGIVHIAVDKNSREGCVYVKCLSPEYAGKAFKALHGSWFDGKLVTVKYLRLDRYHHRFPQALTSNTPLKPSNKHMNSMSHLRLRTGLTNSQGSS
UniProt Q92805, sequence (Q92805 whole entry): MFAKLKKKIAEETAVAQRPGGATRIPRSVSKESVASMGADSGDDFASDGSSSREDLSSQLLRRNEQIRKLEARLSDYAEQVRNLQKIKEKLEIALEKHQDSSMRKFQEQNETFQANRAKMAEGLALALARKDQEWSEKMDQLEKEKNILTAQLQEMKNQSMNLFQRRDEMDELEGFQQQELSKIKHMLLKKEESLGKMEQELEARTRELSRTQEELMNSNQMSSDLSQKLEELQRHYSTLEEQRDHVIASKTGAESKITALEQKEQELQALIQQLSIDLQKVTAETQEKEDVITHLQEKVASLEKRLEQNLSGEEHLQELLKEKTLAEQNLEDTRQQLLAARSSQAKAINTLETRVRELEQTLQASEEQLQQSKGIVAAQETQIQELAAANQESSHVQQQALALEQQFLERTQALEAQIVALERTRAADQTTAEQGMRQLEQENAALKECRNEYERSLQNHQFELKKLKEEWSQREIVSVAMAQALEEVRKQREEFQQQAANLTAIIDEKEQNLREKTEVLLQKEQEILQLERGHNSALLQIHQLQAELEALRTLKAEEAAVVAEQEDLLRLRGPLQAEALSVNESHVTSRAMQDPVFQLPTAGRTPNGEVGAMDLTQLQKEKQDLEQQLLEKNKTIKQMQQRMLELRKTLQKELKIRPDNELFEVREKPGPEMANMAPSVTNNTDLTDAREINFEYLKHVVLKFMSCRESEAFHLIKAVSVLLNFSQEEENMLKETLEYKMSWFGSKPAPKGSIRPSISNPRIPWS
UniProt O00459, sequence (O00459 whole entry): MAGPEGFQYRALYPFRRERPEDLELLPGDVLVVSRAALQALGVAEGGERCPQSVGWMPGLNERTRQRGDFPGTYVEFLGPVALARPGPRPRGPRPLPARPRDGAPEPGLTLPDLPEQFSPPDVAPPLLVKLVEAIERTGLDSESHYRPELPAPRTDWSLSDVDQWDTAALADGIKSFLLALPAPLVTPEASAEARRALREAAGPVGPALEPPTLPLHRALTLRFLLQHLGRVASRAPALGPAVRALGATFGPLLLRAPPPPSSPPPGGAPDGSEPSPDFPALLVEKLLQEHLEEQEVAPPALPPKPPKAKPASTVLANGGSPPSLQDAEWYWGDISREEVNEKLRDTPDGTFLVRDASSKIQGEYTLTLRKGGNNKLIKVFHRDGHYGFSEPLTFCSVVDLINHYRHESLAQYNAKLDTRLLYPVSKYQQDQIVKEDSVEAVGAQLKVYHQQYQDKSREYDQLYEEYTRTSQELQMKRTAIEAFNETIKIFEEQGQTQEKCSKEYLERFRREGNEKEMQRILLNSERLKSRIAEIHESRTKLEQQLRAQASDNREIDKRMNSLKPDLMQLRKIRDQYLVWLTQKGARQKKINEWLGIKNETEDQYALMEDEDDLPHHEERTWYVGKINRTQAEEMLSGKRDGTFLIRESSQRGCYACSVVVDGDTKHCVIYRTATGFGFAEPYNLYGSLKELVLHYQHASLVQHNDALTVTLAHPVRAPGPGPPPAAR
UniProt Q6PI48, sequence (Q6PI48 whole entry): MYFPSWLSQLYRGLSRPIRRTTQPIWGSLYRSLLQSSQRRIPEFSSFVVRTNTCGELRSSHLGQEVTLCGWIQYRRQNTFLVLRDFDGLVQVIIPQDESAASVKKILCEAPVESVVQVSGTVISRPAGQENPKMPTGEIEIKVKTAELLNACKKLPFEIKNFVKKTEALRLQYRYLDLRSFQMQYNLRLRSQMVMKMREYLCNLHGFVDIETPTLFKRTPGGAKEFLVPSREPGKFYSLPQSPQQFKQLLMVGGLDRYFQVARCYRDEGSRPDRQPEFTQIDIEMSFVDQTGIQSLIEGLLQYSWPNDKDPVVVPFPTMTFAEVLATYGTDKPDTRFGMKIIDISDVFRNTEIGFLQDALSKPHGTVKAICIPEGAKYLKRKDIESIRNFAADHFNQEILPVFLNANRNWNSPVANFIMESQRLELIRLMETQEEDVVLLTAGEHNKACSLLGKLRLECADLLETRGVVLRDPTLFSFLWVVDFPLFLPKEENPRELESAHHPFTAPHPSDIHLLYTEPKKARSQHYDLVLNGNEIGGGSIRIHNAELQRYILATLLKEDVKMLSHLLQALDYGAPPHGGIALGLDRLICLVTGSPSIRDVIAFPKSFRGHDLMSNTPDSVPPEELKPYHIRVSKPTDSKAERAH
UniProt Q9H9H4, sequence (Q9H9H4 whole entry): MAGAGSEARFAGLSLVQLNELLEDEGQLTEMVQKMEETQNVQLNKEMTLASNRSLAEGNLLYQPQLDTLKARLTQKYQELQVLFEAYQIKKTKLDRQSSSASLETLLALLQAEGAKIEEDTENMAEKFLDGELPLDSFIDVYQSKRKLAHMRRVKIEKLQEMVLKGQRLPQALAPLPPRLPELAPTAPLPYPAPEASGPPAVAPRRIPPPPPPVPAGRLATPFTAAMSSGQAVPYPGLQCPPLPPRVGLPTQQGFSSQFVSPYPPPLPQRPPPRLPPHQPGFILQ
UniProt P30260, sequence (P30260 whole entry): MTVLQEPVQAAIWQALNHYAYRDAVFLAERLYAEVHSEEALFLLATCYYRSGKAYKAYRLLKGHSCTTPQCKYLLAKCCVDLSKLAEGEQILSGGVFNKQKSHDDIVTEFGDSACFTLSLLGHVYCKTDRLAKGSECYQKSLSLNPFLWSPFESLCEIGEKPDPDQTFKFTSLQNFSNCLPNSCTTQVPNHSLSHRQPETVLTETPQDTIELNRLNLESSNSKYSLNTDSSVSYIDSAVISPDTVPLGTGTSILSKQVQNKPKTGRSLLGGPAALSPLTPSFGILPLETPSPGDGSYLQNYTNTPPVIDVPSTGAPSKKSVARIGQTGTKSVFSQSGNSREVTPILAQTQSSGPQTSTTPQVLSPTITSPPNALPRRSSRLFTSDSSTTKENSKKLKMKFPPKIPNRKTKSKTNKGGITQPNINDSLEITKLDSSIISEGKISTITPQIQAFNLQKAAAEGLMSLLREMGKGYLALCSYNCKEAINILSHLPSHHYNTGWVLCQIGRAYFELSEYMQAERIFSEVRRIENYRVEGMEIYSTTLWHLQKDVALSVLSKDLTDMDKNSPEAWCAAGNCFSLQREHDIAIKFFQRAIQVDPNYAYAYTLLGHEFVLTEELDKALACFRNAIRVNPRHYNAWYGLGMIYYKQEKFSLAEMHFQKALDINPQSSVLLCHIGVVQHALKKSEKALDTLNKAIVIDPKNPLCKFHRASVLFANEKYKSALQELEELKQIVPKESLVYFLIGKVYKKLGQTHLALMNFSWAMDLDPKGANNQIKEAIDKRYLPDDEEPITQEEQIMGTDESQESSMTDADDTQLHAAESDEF
UniProt O75496, sequence (O75496 whole entry): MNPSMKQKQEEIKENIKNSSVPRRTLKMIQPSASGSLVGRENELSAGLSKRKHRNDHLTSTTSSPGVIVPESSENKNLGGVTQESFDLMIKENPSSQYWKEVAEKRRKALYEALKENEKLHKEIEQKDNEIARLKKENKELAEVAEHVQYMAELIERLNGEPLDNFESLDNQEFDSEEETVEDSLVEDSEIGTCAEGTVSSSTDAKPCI
UniProt Q12805, sequence (Q12805 whole entry): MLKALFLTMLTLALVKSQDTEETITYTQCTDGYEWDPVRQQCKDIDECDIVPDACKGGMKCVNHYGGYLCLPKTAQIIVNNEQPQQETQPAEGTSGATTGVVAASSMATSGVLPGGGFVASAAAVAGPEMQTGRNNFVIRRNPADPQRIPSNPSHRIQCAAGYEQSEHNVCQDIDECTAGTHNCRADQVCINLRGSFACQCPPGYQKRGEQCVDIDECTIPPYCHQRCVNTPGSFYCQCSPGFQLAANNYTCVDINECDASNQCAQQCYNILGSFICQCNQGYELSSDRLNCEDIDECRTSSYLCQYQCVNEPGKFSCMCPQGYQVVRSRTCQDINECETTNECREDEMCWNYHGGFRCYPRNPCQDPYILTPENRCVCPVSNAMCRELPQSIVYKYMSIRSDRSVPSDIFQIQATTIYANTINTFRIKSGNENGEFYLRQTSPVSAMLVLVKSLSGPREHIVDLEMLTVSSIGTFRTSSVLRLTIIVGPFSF
UniProt Q9NS69, sequence (Q9NS69 whole entry): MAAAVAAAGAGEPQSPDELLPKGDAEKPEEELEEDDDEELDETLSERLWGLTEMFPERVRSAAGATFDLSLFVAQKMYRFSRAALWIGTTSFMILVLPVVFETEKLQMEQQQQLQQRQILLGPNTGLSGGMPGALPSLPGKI

Target	thermal stability z-score (lipoamide; [1])	thermal stability z-score (lipoamide; arsenate co-treatment: none)	thermal stability z-score (potassium arsenate)
LRPPRC (UniProt P42704)	-1.08	-0.312	-0.267
VPS37B (UniProt Q9H9H4)	-0.0126	0.246	-0.0299
DARS2 (UniProt Q6PI48)	-0.726	-0.586	-1.93
LLGL2 (UniProt Q6P1M3)	-0.179	-0.122	-0.318
NT5DC1 (UniProt Q5TFE4)	0.0662	-0.687	-0.749
GOLGA1 (UniProt Q92805)	-0.956	-0.268	0.92
PPP2CB (UniProt P62714)	0.564	0.167	-0.474
NARS (UniProt O43776)	-0.596	-0.292	1.17
FKBP4 (UniProt Q02790)	0.198	0.244	0.191
PDS5B (UniProt Q9NTI5)	0.839	0.426	-0.362
RRAGC (UniProt Q9HB90)	0.182	-0.182	-0.786
EFEMP1 (UniProt Q12805)	-3.26	-2.96	0.134
CDC27 (UniProt P30260)	0.122	0.0944	-0.522
TWF2 (UniProt Q6IBS0)	-0.088	-0.182	-0.697
TRAF3IP2 (UniProt O43734)	-0.106	-0.159	-0.155
ACADM (UniProt P11310)	0.376	0.186	-1.07
TMEM106B (UniProt Q9NUM4)	-0.167	0.154	0.192
CEP170 (UniProt Q5SW79)	-0.0596	-0.496	1.21
CTTNBP2NL (UniProt Q9P2B4)	1.4	1.54	1.26
CPA4 (UniProt Q9UI42)	-0.883	-0.642	0.188
FAM234A (UniProt Q9H0X4)	-0.353	-0.499	-0.743
LDLR (UniProt P01130)	0.0821	-0.206	-0.0946
DERA (UniProt Q9Y315)	0.0875	-0.0376	-0.0631
NDUFAB1 (UniProt O14561)	1.77	-0.297	0.86
TOMM22 (UniProt Q9NS69)	0.165	0.384	0.468
GMNN (UniProt O75496)	0.365	0.809	0.576
A0A087WV05|MYCBP	1.93	1.66	0.26
SETD3 (UniProt Q86TU7)	-0.479	-0.251	0.0633

Target	thermal stability z-score (lipoamide; [1])	thermal stability z-score (lipoamide; arsenate co-treatment: none)	thermal stability z-score (potassium arsenate)
PEX5 (UniProt P50542)	-0.624	-0.706	0.137
DCAF7 (UniProt P61962)	0.278	0.939	1.2
EFHD2 (UniProt Q96C19)	0.403	0.677	-0.223
RABGAP1 (UniProt Q9Y3P9)	-0.333	-0.253	0.318
KIN (UniProt O60870)	-0.0116	0.0339	-0.174
PAFAH1B3 (UniProt Q15102)	0.574	0.345	0.275
RPRD1A (UniProt Q96P16)	-0.123	-0.0762	-0.037
PIK3R2 (UniProt O00459)	-0.263	0.416	-0.17
ATAD3A (UniProt Q9NVI7)	-0.137	0.337	0.401
ADK (UniProt P55263)	-0.131	-0.279	-1.35
SRSF9 (UniProt Q13242)	2.14	0.947	0.0934
STRIP1 (UniProt Q5VSL9)	0.978	1.5	1.36
ERLIN2 (UniProt O94905)	-1.05	-0.752	-0.0487
SLC26A6 (UniProt Q9BXS9)	0.538	1.4	0.375
LEMD3 (UniProt Q9Y2U8)	0.161	0.209	-0.685
MAVS (UniProt Q7Z434)	0.0772	0.294	-0.963
SPG7 (UniProt Q9UQ90)	-0.126	-0.0687	0.156
THOC7 (UniProt Q6I9Y2)	0.192	0.175	-0.26
RPL12 (UniProt P30050)	0.344	0.0511	-0.459
NDRG1 (UniProt Q92597)	-0.311	-0.62	-1.31
SORBS3 (UniProt O60504)	-0.117	0.0779	-0.323
AIMP1 (UniProt Q12904)	0.288	0.163	0.717
RPL8 (UniProt P62917)	0.0892	-0.22	-1.07
ENG (UniProt P17813)	-0.721	-0.506	0.478
MICALL1 (UniProt Q8N3F8)	-0.217	0.212	-0.602
MIB1 (UniProt Q86YT6)	-0.621	-0.586	-1.05
MINA (UniProt Q8IUF8)	0.0507	0.508	-1.34
